Data set [1] is described as follows: Lung PK after intratracheal administration to Sprague-Dawley rats (PreciseInhale system). The data set is classed as in vivo. The settings on record: rat, inhaled or intranasal, male Sprague-Dawley rats, 10 μg/lung deposited dose. As to the method:
Crystal Form 2 of the compound of formula (I) was intratracheally administered to Sprague-Dawley rats using the PreciseInhale system at the dose of 10 μg/lung deposited dose. Powder aerosols was generated using 40 bar generating pressure. A total number of 24 Sprague-Dawley male rats was used for PK investigation; 8 time points for each study, n=3 rats/time point. Before administration, rats were anesthetized with sevoflurane and endotracheally intubated using appropriate steel catheters. Aerosol administration was performed connecting the catheter to the PreciseInhale system, previously set to deliver 10 μg/lung deposited dose to each animal.
Lung t1/2 is the terminal half-life, calculated by the formula ln(2)/λz, where λz is the first-order rate constant associated with the terminal (log-linear) portion of the curve. Estimated by linear regression of time vs. log concentration; i.e. the time it takes for the concentration of the drug in the lung to be reduced by 50%.
Lung MRTlast is the mean residence time from the time of dosing to the time of the last measurable concentration; i.e. the average time a molecule stays in the lung.

Data set [2] in a line: Solubility in Simulated Lung Fluid (SLF), saturation shake-flask method. The data set is classed as physicochemical. The settings on record: for solubility at 0.5 h / solubility at 1 h / solubility at 3 h: simulated lung fluid (SLF), aqueous with cosolvent or surfactant or cyclodextrin, thermodynamic from solid, SLF with 0.02% v/v Tween 80, pH 6.5, 37° C. As to the method: A study of solubility in SLF for the characterization of the crystal Form 2 and crystal Form A of the compound of formula (I), was performed. The use of SLF, that mimics the physiologically lung fluid, can give a good understanding of the dissolution mechanism and possible in vivo behavior of a product, enhancing the predictive capability of the dissolution testing in terms of bioavailability and therapeutic effectiveness.
The experimental method used is based on saturation shake-flask method. The samples were prepared by adding, respectively, an excess of the crystal Form 2 of the compound of formula (I) and an excess of the crystal Form A of the compound of formula (I), to the solubility medium SLF. The solubility concentration value is the thermodynamic equilibrium concentration, determined by assaying the solute concentration of the filtrate from a saturated solution, using an analytical method by UPLC-MS (MRM quantification; calibration: from 0.01 to 10 μg/ml; every batch have been tested in duplicate and samples have been filtered and diluted 1/10 in duplicate).
The SLF used for the tests were prepared analogously to literature (Simulated Biological Fluids with Possible Application in Dissolution Testing, Dissolution Technologies, 2011, dx.doi.org/10.14227/DT180311P15, table 11, page 2215). To mimic better the lung fluid, a surfactant, particularly Tween 80, has been added (0.02% v/v).
The solubility profile of the crystal Form 2 and the crystal Form A of the compound of formula (I) was determined in SLF adjusted with acetic acid (1M) to pH of 6.5, in order to simulate an inflammation condition in the lung. The experiment was conducted at 37° C.
The following experimental conditions were applied for the SLF dissolution profile study respectively for the crystal Form 2 and the crystal Form A of the compound of formula (I). About 2.5 mg of the crystal Form 2 or the crystal Form A of the compound of formula (I) was dispersed in 2.5 ml of SLF with stirring system. The concentration of material in solution was determined after 0.5, 1 and 3 hours. In each time interval, the vessel stirring was stopped, and 180-250 μl of each samples have been collected and filtered by RC Membrane Syringe Filters 0.45 μm and injected in UPLC apparatus.

The source of these data is patent US20250288568A1, “NEW CRYSTAL FORM OF A PDE4 INHIBITOR” (CHIESI FARMACEUTICI S.P.A., priority 2022, published 2025).

SMILES strings stand for the structures. ≈ marks a conversion by molar mass, not a printed value.

One may read the solubility as how much of the substance goes into solution per volume. A higher solubility goes with much dissolved substance. Regarding `CS(=O)(=O)Nc1ccc(C(=O)O[C@@H](Cc2c(Cl)c[n+]([O-])cc2Cl)c2ccc(OC(F)F)c(OCC3CC3)c2)cc1OCC1CC1` (single isomer, unassigned) [Crystal Form 2], the MRT last in data set [1] (mean residence time to last measurable concentration, read-out: Lung MRTlast) came to 9.4 h. Further, the half-life in data set [1] (terminal half-life in lung, read-out: Lung t1/2 (converted)) was 7.7 h. Besides, the “Higher solubility in SLF with respect to the crystal Form A” value in data set [2] (crystal Form 2 vs crystal Form A, SLF, at 0.5, 1 and 3 hours) is on record as “at least 4.5 fold”. Besides, in data set [2], the concentration in solution (solubility at 0.5 h) was 0.74 µg/mL (≈ 1.08 µM), the solubility at 1 h was 0.89 µg/mL (≈ 1.29 µM) and the solubility at 3 h was 0.88 µg/mL (≈ 1.28 µM).
In data set [2], `CS(=O)(=O)Nc1ccc(C(=O)O[C@@H](Cc2c(Cl)c[n+]([O-])cc2Cl)c2ccc(OC(F)F)c(OCC3CC3)c2)cc1OCC1CC1` [Crystal Form A, 3,5-dichloro-4-[(2S)-2-[3-(cyclopropylmethoxy)-4-(difluoromethoxy)phenyl]-2-{[3-(cyclopropylmethoxy)-4-(methanesulfonamido)benzoyl]oxy}ethyl]pyridine1-oxide, reference compound] gave a solubility at 0.5 h of 0.16 µg/mL (≈ 0.233 µM), a solubility at 1 h of 0.18 µg/mL (≈ 0.262 µM) and a solubility at 3 h of 0.2 µg/mL (≈ 0.291 µM).
